Patent US12090147B2, “Combination therapy with 2-(4-chlorophenyl)-N-((2-(2,6-dioxopiperidin-3-yl)-1-oxoisoindolin-5-yl)methyl)-2,2-difluoroacetamide” (Celgene Corporation, priority 2019, dated 2024)
pIC50: −log10 of the molar value.

Tests used:
[1] = tested on: NOMO-1; test: Cell viability (CELL TITER-GLO), Compound 1 IC50; type: cell-based; settings: Homo sapiens; NOMO-1 (macrophage, FAB M5a)
Experimental: (§1) For CELL TITER-GLO® (CTG; Promega) and Incucyte assays, cells were seeded at 0.1 million per mL, 50 μL per well of Corning black 384-well plate and allowed set overnight. The next day, test compounds were dispensed using a Tecan D300e digital dispenser according to manufacturer's instruction.
(§2) Human AML cell lines, HL-60 (CCL-240), KG-1 (CCL-246), ML-2 (ACC-15), MOLM-13 (ACC-554), MV-4-11 (CRL-9591), NOMO-1 (ACC-542), TF-1 (CRL-2003), THP-1 (TIB-202), and U937 (CRL-1593) were obtained from American Type Culture Collection (ATCC; Manassas, VA) or Deutsche Sammlung von Mikroorganismen and Zellkulturen (DSMZ, Germany) cell banks. Acute myeloid leukemia cell lines were maintained in RPMI-1640 (ATCC Cat No. 30-2001) containing 20% fetal bovine serum (FBS) (Corning Cat No. 35-010-CV) and maintained in humidified incubators at 5% carbon dioxide.
(§3) AML cell lines and primary AML were treated in duplicate or triplicates with DMSO or test compounds in 384-well plates for 3 days. Cell viability was determined by CELL TITER-GLO® (CTG; Promega) assay kit according to manufacturer's instructions. Apoptosis was monitored using Caspase 3/7 Green reagent (Essen Biosciences Cat No. 4440). Caspase-3/7 activation levels were quantified using the IncuCyte™ ZOOM basic analyzer.
(§4) Cell proliferation (CTG) and caspase 3/7 activation (IncuCyte) were analyzed using GraphPad Prism. Electrochemiluminescence data was analyzed using MSD Discovery Workbench platform.

[2] = tested on: TF-1; test: Cell viability (CELL TITER-GLO), Compound 1 IC50; type: cell-based; settings: Homo sapiens; TF-1 (erythroblast, FAB M6)
Experimental: as §1, §2, §3, §4

[3] = tested on: KG-1; test: Cell viability (CELL TITER-GLO), Compound 1 IC50; type: cell-based; settings: Homo sapiens; KG-1 (myeloblast, FAB M0)
Experimental: as §1, §2, §3, §4

[4] = tested on: MV4-11; test: Cell viability (CELL TITER-GLO), Compound 1 IC50; type: cell-based; settings: Homo sapiens; MV4-11 (acute myeloid leukemia, FAB M5)
Experimental: as §1, §2, §3, §4

[5] = tested on: MOLM-13; test: Cell viability (CELL TITER-GLO), Compound 1 IC50; type: cell-based; settings: Homo sapiens; MOLM-13 (monocytic, FAB M5a)
Experimental: as §1, §2, §3, §4

[6] = tested on: MOLM13 cell pair expressing wildtype GSPT1 or GSPT1 G575N; test: Isogenic cell pair, endogenous GSPT1 vs non-degradable GSPT1 G575N; type: cell-based, human; settings: MOLM13 overexpressing GSPT1 G575N
Excerpt: To further confirm if IL-1β induction is an on-target effect of GSPT1 degradation, intracellular pro-IL-1β and secreted IL-1βb levels in response to Compound 1 treatment were compared in an isogenic MOLM13 cell pair either expressing endogenous wildtype GSPT1 or overexpressing a non-degradable form of GSPT1 G575N.

[7] = tested on: isogenic MV4-11 Cas9 cell pair (GCN2); test: Isogenic cell pair, wildtype GCN2 vs GCN2 deleted; type: cell-based, human
Excerpt: ISR, especially via GCN2 pathway, is one of the key pathways contributed to GSPT1 mediated cell death. GCN2 knock down blocked ATF4 and CHOP induction by Compound 1, and suppressed caspase 3 and caspase 8 activation. GCN2 has been implicated in IL-1β production. GCN2 activation inhibit classical caspase 1 mediated inflammasome activation in intestinal cells and that GCN2 knock down in CD11c+ antigen presenting cells or intestinal epithelial cells leads to enhanced inflammasome activation and IL-1β production. (Ravindran et al. Nature. 2016, 531(7595):523-527). To understand if Compound 1 mediated IL-1β induction is downstream of GCN2 pathway, an isogenic MV4-11 Cas9 cell pair either expressing endogenous wildtype GCN2 or with the gene deleted was used. GCN2 knock down suppressed the induction of phosphor-eIF2a, ATF4, CHOP and cleaved caspase 8 by Compound 1 (FIG. 9A). […] These evidences pointed that pro-[…] up-regulation and secreted IL-1β induction are both downstream effects of GCN2 pathway activation, and distinct from the GCN2 mediated classical inflammasome pathway inhibition reported in gut cells (Ravindran et al. Nature. 2016, 531(7595):523-527).

[8] = tested on: ML-2; test: Caspase 8/FLICE activity colorimetric assay; type: cell-based, human; settings: compounds at 1 μM, 24, 48 and 72 hours
Experimental: (§5) Next, tests were performed to see if caspase 8 activation alone is sufficient to mediate IL-1β induction. […] To ensure caspase 8 activity was captured at an appropriate time frame, caspase 8 activation levels at 24, 48 and 72 hours were measured (FIGS. 3C and 3D) using a caspase 8/FLICE activity colorimetric assay.

[9] = tested on: MV4-11; test: Caspase 8/FLICE activity colorimetric assay; type: cell-based, human; settings: compounds at 1 μM, 24, 48 and 72 hours
Experimental: as §5

[10] = pH 5
[11] = tested on: MV4-11; test: Cytokine induction, electrochemiluminescence assay of culture supernatant; type: cell-based, human; settings: compounds at 1 μM, 72 hours
[12] = physchem; settings: aqueous buffer

## O=C1CCC(N2Cc3cc(CNC(=O)C(F)(F)c4ccc(Cl)cc4)ccc3C2=O)C(=O)N1 (stereo not drawn) [Compound 1, 2-(4-chlorophenyl)-N-((2-(2,6-dioxopiperidin-3-yl)-1-oxoisoindolin-5-yl)methyl)-2,2-difluoroacetamide]
[1]
  pIC50: 7.24
[2]
  pIC50: 6.98
[3]
  pIC50: 8.05
[4]
  pIC50: 7.76
[5]
  pIC50: 7.12
[6]
  Compound 1 mediated GSPT1 degradation, caspase 3 activation and viability loss: complete resistance
  Pro-IL-1β, intracellular and supernatant IL-1β induction: completely blocked
[7]; GCN2 knock down
  Induction of phosphor-eIF2a, ATF4, CHOP and cleaved caspase 8: suppressed
[7]; GCN2 knock out cells compared to parental cells
  Intracellular and supernatant IL-1β induction: markedly suppressed
[7]; absence of GCN2
  Pro-IL-1β upregulation: abolished
[8]
  Caspase 8 activation level: not the most efficient caspase 8 activating compound across all time points tested
[9]
  Caspase 8 activation level: not the most efficient caspase 8 activating compound across all time points tested
[10]
  Solution Stability: DS is not stable in solution at pH of 5.0 or above.
[11]
  Secreted IL-1β levels, panel of mechanistic compounds: produced markedly more secreted IL-1β compared to all other compounds tested
[12]
  solubility: ≤ 1 µg/mL
